# Measurements as given in patent US10253049B2, “Boronic acid derivatives” (MERCK PATENT GMBH, priority 2014, dated 2019).
# Molecular target: LMP7 (purified human immunoproteasome) (Homo sapiens, UniProt P28062)
# Assay: Determination of LMP7 activity (fluorescence intensity assay, Suc-LLVY-AMC)
# Type: biochemical
# Conditions: incubation for 20 minutes
# Description: Determination of LMP7 Activity
# Measurement of LMP7 inhibition is performed in 384 well format based on fluorescence intensity assay.
# Purified human immunoproteasome (0.25 nM) and serial diluted compounds in DMSO (range of concentrations from 30 μM to 15 pM) or controls are incubated for 20 minutes or 120 minutes (long incubation) at 25° C. in assay buffer containing 50 mM Tris pH 7.4, 0.03% SDS, 1 mM EDTA and 1% DMSO. The reaction is initiated by the addition of the fluorogenic peptide substrate, Suc-LLVY-AMC (Bachem I-1395), at a concentration of 40 μM. After 60 minutes of incubation at 37° C., fluorescence intensity is measured at λex=350 nm and λem=450 nm with a fluorescence reader (Perkin Elmer Envision reader or equivalent).
# Unless indicated otherwise the results are obtained after incubation for 20 minutes.
row,SMILES,IC50 [nM]
1,"CCN(CCC(=O)N[C@@H](Cc1ccccc1)B(O)O)C(=O)c1cccc(C)c1 [Compound No. 13, [(1R)-1-[3-[ethyl-(3-methylbenzoyl)amino]propanoylamino]-2-phenyl-ethyl]boronic acid]",50 to 500
2,"CN(CCC(=O)N[C@@H](Cc1ccccc1)B(O)O)C(=O)c1ccccc1 [Compound No. 10, [(1R)-1-[3-[benzoyl(methyl)amino]propanoylamino]-2-phenyl-ethyl]boronic acid]",50 to 500
3,"CCc1cccc(C[C@H](NC(=O)CCCCS(C)(=O)=O)B(O)O)c1 [Compound No. 22, [(1R)-2-(3-ethylphenyl)-1-(5-methylsulfonylpentanoylamino)ethyl]-boronic acid]",50 to 500
4,"CCN(CC(=O)N[C@@H](Cc1ccccc1)B(O)O)C(=O)c1ccccc1 [Compound No. 17, [(1R)-1-[[2-[benzoyl(ethyl)amino]acetyl]amino]-2-phenyl-ethyl]boronic acid]",50 to 500
5,"CCN(CCC(=O)N[C@@H](Cc1ccccc1)B(O)O)C(=O)c1ccccc1C [Compound No. 12, [(1R)-1-[3-[ethyl-(2-methylbenzoyl)amino]propanoylamino]-2-phenyl-ethyl]boronic acid]",50 to 500
6,"CC(=O)N(CCC(=O)N[C@@H](Cc1ccccc1)B(O)O)c1ccccc1 [Compound No. 1, [(1R)-1-[3-(N-acetylanilino)propanoylamino]-2-phenyl-ethyl]boronic acid]",50 to 500
7,"Cc1ccc(C[C@H](NC(=O)CCN(C(C)C)S(C)(=O)=O)B(O)O)cc1 [Compound No. 15, [(1R)-1-[3-[isopropyl(methylsulfonyl)amino]propanoylamino]-2-(p-tolyl)ethyl]boronic acid]",50 to 500
8,"CCS(=O)(=O)N(CCC(=O)N[C@@H](Cc1ccc(C)cc1)B(O)O)c1ccccc1 [Compound No. 2, [(1R)-1-[3-(N-ethylsulfonylanilino)propanoylamino]-2-(p-tolyl)ethyl]boronic acid]",< 50

# Now from value to compound:
row,IC50 [nM],SMILES
1,< 50,"CCN(CCC(=O)N[C@@H](Cc1ccc(C)cc1)B(O)O)S(=O)(=O)CC [Compound No. 11, [(1R)-1-[3-[ethyl(ethylsulfonyl)amino]propanoylamino]-2-(p-tolyl)ethyl]boronic acid]"
2,< 50,"Cc1ccc(C[C@H](NC(=O)CCN(C(C)C)S(=O)(=O)c2ccccc2)B(O)O)cc1 [Compound No. 6, [(1R)-1-[3-[benzenesulfonyl(isopropyl)amino]propanoylamino]-2-(p-tolyl)ethyl]boronic acid]"
3,< 50,"Cc1ccc(C[C@H](NC(=O)CCN(C)S(=O)(=O)c2ccccc2)B(O)O)cc1 [Compound No. 7, [(1R)-1-[3-[benzenesulfonyl(methyl)amino]propanoylamino]-2-(p-tolyl)ethyl]boronic acid]"
4,< 50,"CCN(CCC(=O)N[C@@H](Cc1ccc(C)cc1)B(O)O)S(=O)(=O)c1ccccc1 [Compound No. 5, [(1R)-1-[3-[benzenesulfonyl(ethyl)amino]propanoylamino]-2-(p-tolyl)ethyl]boronic acid]"
5,< 50,"CS(=O)(=O)CCC(=O)N[C@@H](Cc1coc2ccccc12)B(O)O [Compound No. 23, [(1R)-2-(benzofuran-3-yl)-1-(3-methylsulfonylpropanoylamino)ethyl]-boronic acid]"
